Experiment [1] has as its target T1, pseudo-kinase domain (JH2, amino-acids 536-812 with 3 surface mutations W659A, W777A, F794H) of human V617F mutant JAK2 (Homo sapiens, UniProt O60674, F794H/V617F/W659A/W777A).
T1 construct: pseudo-kinase domain (JH2, amino-acids 536-812 with 3 surface mutations W659A, W777A, F794H); His (C); Avi (biotinylated) (C); purchased BPS Bioscience 79498; host or cells: baculovirus expression system
The experiment is described as follows: JAK2 LanthaScreen JH2-V617F Binding Assay. The settings on record: JAK2 JH2-V617F (0.26 nM), 50 nM Fluorescent JAK2-JH2 Tracer, 1 hour at 25° C.; read-out: JH2 BIND V617F. How it is done: Example C. JAK2 LanthaScreen JH2-V617F Binding Assay
(§1) JAK2 JH2-V617F binding assay utilizes pseudo-kinase domain (JH2, amino-acids 536-812 with 3 surface mutations W659A, W777A, F794H) of human V617F mutant JAK2 expressed as C-terminal His-Avi-tagged, biotinylated protein in a baculovirus expression system (BPS Bioscience, Catalog #79498). The assay was conducted in black 384-well polystyrene plates in a final reaction volume of 20 μL. JAK2 JH2-V617F (0.26 nM) was incubated with compounds (100 nL serially diluted in DMSO) in the presence of 50 nM Fluorescent JAK2-JH2 Tracer (MedChem Express Catalog #HY-102055) and 0.25 nM Streptavidin-Tb cryptate (Cisbio Part #610SATLB) in assay buffer (50 mM Tris, pH=7.5, 10 mM MgCl2, 0.01% Brij-35, 0.1% BSA, 1 mM EGTA, 5% Glycerol and 5 mM DTT). Non-specific binding was accessed in the presence of 2 mM ATP. After incubation for 1 hour at 25° C., LanthaScreen signals were read on a PHERAstar FS plate reader (BMG LABTECH). Data was analyzed with IDBS XLfit and GraphPad Prism 5.0 software using a four parameter dose response curve to determine IC50 for each compound.
A general note: In TR-FRET formats the signal depends on donor and acceptor labels being close together.

The target in experiment [2] is T2, catalytic domain (JH1, amino acids 826-1132) of human JAK2 (Homo sapiens, UniProt O60674).
T2 construct: catalytic domain (JH1, amino acids 826-1132) of human JAK2; FLAG (N); purchased Carna Biosciences 08-445-20N; host or cells: baculovirus expression system
The experiment is described as follows: JAK2 LanthaScreen JH1 Binding Assay. The note with it: JAK2 JH1 (1.5 nM), 50 nM fluorescent JAK2-JH1 tracer, 2 hours at 25° C.; read-out: JH1 BIND. The procedure: Example A. JAK2 LanthaScreen JH1 Binding Assay
JAK2 JH1 binding assay utilizes catalytic domain (JH1, amino acids 826-1132) of human JAK2 expressed as N-terminal FLAG-tagged, biotinylated protein in a baculovirus expression system (Carna Biosciences, Product #08-445-20N). The assay was conducted in black 384-well polystyrene plates in a final reaction volume of 20 μL. JAK2 JH1 (1.5 nM) was incubated with compounds (100 nL serially diluted in DMSO) in the presence of 50 nM fluorescent JAK2-JH1 tracer and 0.5 nM Streptavidin-Tb cryptate (Cisbio Part #610SATLB) in assay buffer (50 mM Tris, pH=7.5, 10 mM MgCl2, 0.01% Brij-35, 0.1% BSA, 1 mM EGTA, 5% Glycerol and 5 mM DTT). Non-specific binding was accessed in the presence of 2 mM ATP. After incubation for 2 hours at 25° C., LanthaScreen signals were read on a PHERAstar FS plate reader (BMG LABTECH). Data was analyzed with IDBS XLfit and GraphPad Prism 5.0 software using a four parameter dose response curve to determine IC50 for each compound.

Experiment [3] has as its target T3, pseudo-kinase domain (JH2, amino-acids 536-812 with 3 surface mutations W659A, W777A, F794H) of human Wild Type JAK2 (Homo sapiens, UniProt O60674, F794H/W659A/W777A).
T3 construct: pseudo-kinase domain (JH2, amino-acids 536-812 with 3 surface mutations W659A, W777A, F794H); His (C); Avi (biotinylated) (C); purchased BPS Bioscience 79463; host or cells: baculovirus expression system
The experiment is described as follows: JAK2 LanthaScreen JH2-WT Binding Assay. The note with it: JAK2 JH2-WT (0.145 nM), 50 nM Fluorescent JAK2-JH2 Tracer, 1 hour at 25° C.; read-out: JH2 BIND WT. The procedure: Example B. JAK2 LanthaScreen JH2-WT Binding Assay
as §1, with “JH2-WT” for “JH2-V617F”, “Wild Type” for “V617F mutant”, “#79463).” for “#79498).”, “JH2-WT (0.145” for “JH2-V617F (0.26”

pIC50: −log10 of the molar value. A value given as a limit tells only on which side of the number the result lay.

T2 sequence (O60674 826-1132): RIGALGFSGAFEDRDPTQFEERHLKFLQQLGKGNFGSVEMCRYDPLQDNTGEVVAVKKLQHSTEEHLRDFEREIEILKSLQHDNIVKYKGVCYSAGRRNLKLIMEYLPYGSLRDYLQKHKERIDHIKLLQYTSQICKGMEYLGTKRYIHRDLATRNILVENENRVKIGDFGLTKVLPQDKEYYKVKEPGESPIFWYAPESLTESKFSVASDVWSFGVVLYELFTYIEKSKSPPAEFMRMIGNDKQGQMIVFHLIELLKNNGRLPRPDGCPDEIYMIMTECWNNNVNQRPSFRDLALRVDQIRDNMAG
T3 sequence (O60674 536-812 W659A/W777A/F794H): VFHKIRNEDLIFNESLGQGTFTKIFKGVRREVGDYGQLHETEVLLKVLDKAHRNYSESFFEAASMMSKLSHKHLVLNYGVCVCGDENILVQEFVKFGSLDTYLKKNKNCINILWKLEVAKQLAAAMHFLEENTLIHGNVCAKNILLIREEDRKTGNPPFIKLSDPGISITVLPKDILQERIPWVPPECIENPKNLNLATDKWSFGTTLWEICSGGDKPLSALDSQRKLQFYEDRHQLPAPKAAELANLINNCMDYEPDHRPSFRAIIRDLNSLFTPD
T1 sequence (O60674 536-812 V617F/W659A/W777A/F794H): as the sequence (O60674 536-812 W659A/W777A/F794H) above, with V82F counted along it

`Cn1c(=O)n(-c2ccccc2)c2c3cc(-c4ccc(CN5CCC(S(C)(=O)=O)CC5)cc4)[nH]c3ncc21` [Example 1, 3-Methyl-7-(4-((4-(methylsulfonyl)piperidin-1-yl)methyl)phenyl)-1-phenyl-3,6-dihydroimidazo[4,5-d]pyrrolo[2,3-b]pyridin-2(1H)-one]: the pIC50 was 6.30 to 7.00 in experiment [1], 7.00 to 8.00 in experiment [2] and 7.00 to 8.00 in experiment [3].
With `COc1ccc(-n2c(=O)n(C)c3cnc4[nH]c(-c5ccc(CN6CCC(S(C)(=O)=O)CC6)cc5)cc4c32)cc1` [Example 2, 1-(4-Methoxyphenyl)-3-methyl-7-(4-((4-(methylsulfonyl)piperidin-1-yl)methyl)phenyl)-3,6-dihydroimidazo[4,5-d]pyrrolo[2,3-b] pyridin-2(1H)-one], the values for the pIC50 in experiment [1], in experiment [2] and in experiment [3] were 6.30 to 7.00, 7.00 to 8.00 and 7.00 to 8.00, respectively.
Take `Cn1c(=O)n(-c2ccc3occc3c2)c2c3cc(-c4ccc(CN5CCC(S(C)(=O)=O)CC5)cc4)[nH]c3ncc21` [Example 3, 1-(Benzofuran-5-yl)-3-methyl-7-(4-((4-(methylsulfonyl)piperidin-1-yl)methyl)phenyl)-3,6-dihydroimidazo[4,5-d]pyrrolo[2,3-b]pyridin-2(1H)-one]: the pIC50 in experiment [1], in experiment [2] and in experiment [3] was 7.00 to 8.00 throughout.
With `CS(=O)(=O)C1CCN(Cc2ccc(-c3cc4c(ncc5[nH]c(=O)n(-c6ccccc6)c54)[nH]3)cc2)CC1` [Example 4, 7-(4-((4-(Methylsulfonyl)piperidin-1-yl)methyl)phenyl)-1-phenyl-3,6-dihydroimidazo [4,5-d]pyrrolo[2,3-b]pyridin-2(1H)-one], the pIC50 was 6.30 to 7.00 in experiment [1], 7.00 to 8.00 in experiment [2] and 6.30 to 7.00 in experiment [3].
For the compound `CS(=O)(=O)C1CCN(Cc2ccc(-c3cc4c(ncc5c4n(-c4ccccc4)c(=O)n5CCO)[nH]3)cc2)CC1` [Example 5, 3-(2-Hydroxyethyl)-7-(4-((4-(methylsulfonyl)piperidin-1-yl)methyl)phenyl)-1-phenyl-3,6-dihydroimidazo[4,5-d]pyrrolo[2,3-b]pyridin-2(1H)-one], the pIC50 in experiment [1] is less than 6.00; in experiment [2], 6.30 to 7.00; in experiment [3] it was less than 6.00.
For `Cn1c(=O)n(-c2ccccc2)c2c3cc(-c4cnn(C5CCS(=O)(=O)C5)c4)[nH]c3ncc21` (stereo not drawn) [Example 6, 7-(1-(1,1-Dioxidotetrahydro-thiophen-3-yl)-1H-pyrazol-4-yl)-3-methyl-1-phenyl-3,6-dihydroimidazo[4,5-d]pyrrolo[2,3-b]pyridin-2(1H)-one], the pIC50 was 6.30 to 7.00 in experiment [1], 7.00 to 8.00 in experiment [2] and 6.30 to 7.00 in experiment [3].
On to `CN(CCCS(C)(=O)=O)Cc1ccc(-c2cc3c(ncc4c3n(-c3ccccc3)c(=O)n4C)[nH]2)cc1` [Example 7, 3-Methyl-7-(4-((methyl(3-(methylsulfonyl)propyl)amino)methyl)phenyl)-1-phenyl-3,6-dihydroimidazo [4,5-d]pyrrolo[2,3-b]pyridin-2(1H)-one], for which the pIC50 in experiment [1] was 6.30 to 7.00; in experiment [2], 7.00 to 8.00; in experiment [3] it was 6.30 to 7.00.
With `Cn1c(=O)n(-c2ccccc2)c2c3cc(-c4ccc(CN5CCC(S(C)(=O)=O)CC5)c(F)c4)[nH]c3ncc21` [Example 8, 7-(3-Fluoro-4-((4-(methylsulfonyl)piperidin-1-yl)methyl)phenyl)-3-methyl-1-phenyl-3,6-dihydroimidazo[4,5-d]pyrrolo[2,3-b]pyridin-2(1H)-one], the results for the pIC50 in experiment [1], in experiment [2] and in experiment [3] were 6.30 to 7.00, 7.00 to 8.00 and 7.00 to 8.00, respectively.
For the compound `CCN1CCN(c2ccc(-c3cc4c(ncc5c4n(-c4ccccn4)c(=O)n5C)[nH]3)cc2)CC1` [Example 9, 7-(4-(4-Ethylpiperazin-1-yl)phenyl)-3-methyl-1-(pyridin-2-yl)-3,6-dihydroimidazo[4,5-d]pyrrolo[2,3-b]pyridin-2(1H)-one], the pIC50 in experiment [1], in experiment [2] and in experiment [3] was less than 6.00 in each case.
For `Cn1c(=O)n(C2CCCCC2)c2c3cc(-c4ccc(CN5CCC(S(C)(=O)=O)CC5)cc4)[nH]c3ncc21` [Example 10, 1-Cyclohexyl-3-methyl-7-(4-((4-(methylsulfonyl)piperidin-1-yl)methyl)phenyl)-3,6-dihydroimidazo[4,5-d]pyrrolo[2,3-b]pyridin-2(1H)-one], the pIC50 is 6.30 to 7.00 in experiment [1], 7.00 to 8.00 in experiment [2] and 7.00 to 8.00 in experiment [3].
In the case of `Cn1c(=O)n(C(C)(C)C)c2c3cc(-c4ccc(CN5CCC(S(C)(=O)=O)CC5)cc4)[nH]c3ncc21` [Example 11, 1-(tert-Butyl)-3-methyl-7-(4-((4-(methylsulfonyl)piperidin-1-yl)methyl)phenyl)-3,6-dihydroimidazo[4,5-d]pyrrolo[2,3-b]pyridin-2(1H)-one], the pIC50 in experiment [1], in experiment [2] and in experiment [3] was 7.00 to 8.00 each time.
Regarding `Cn1c(=O)n(C2CCCCC2)c2c3cc(-c4cnn(CS(C)(=O)=O)c4)[nH]c3ncc21` [Example 12, 1-Cyclohexyl-3-methyl-7-(1-((methylsulfonyl)methyl)-1H-pyrazol-4-yl)-3,6-dihydroimidazo[4,5-d]pyrrolo[2,3-b]pyridin-2(1H)-one], the pIC50 in experiment [1] is 6.30 to 7.00; in experiment [2], 7.00 to 8.00; in experiment [3] it was 7.00 to 8.00.
Turning to `CCn1c(=O)n(C2CCCC2)c2c3cc(-c4ccc(CN5CCC(S(C)(=O)=O)CC5)cc4)[nH]c3ncc21` [Example 13, 1-Cyclopentyl-3-ethyl-7-(4-((4-(methylsulfonyl)piperidin-1-yl)methyl)phenyl)-3,6-dihydroimidazo[4,5-d]pyrrolo[2,3-b] pyridin-2(1H)-one], the pIC50 is less than 6.00 in experiment [1], 6.30 to 7.00 in experiment [2] and less than 6.00 in experiment [3].
With `Cn1cc(-c2cc3c(ncc4c3[nH]c(=O)n4C)[nH]2)cn1` [Example 14, 3-Methyl-7-(1-methyl-1H-pyrazol-4-yl)-3,6-dihydroimidazo[4,5-d]pyrrolo[2,3-b]pyridin-2(1H)-one], the results for the pIC50 in experiment [1], in experiment [2] and in experiment [3] were less than 6.00, 6.30 to 7.00 and less than 6.00, respectively.

The record behind these values is US11780840B2 (Incyte Corporation, priority 2020, dated 2023).
